# Earlier results, collected in patent publication US20190274971A1, “USE OF AMERICAN GINSENG TO […]-INDUCED INTOXICATION” (ENGEN MEDICAL CORPORATION, priority 2018, published 2019).
# Target: CB1 receptor (Homo sapiens, UniProt P21554)
# Details: literature statement (Leonti et al., Biochemical Pharmacology 79(12):1815-1826, 2010)
# Sequence of CB1 receptor (P21554 whole entry): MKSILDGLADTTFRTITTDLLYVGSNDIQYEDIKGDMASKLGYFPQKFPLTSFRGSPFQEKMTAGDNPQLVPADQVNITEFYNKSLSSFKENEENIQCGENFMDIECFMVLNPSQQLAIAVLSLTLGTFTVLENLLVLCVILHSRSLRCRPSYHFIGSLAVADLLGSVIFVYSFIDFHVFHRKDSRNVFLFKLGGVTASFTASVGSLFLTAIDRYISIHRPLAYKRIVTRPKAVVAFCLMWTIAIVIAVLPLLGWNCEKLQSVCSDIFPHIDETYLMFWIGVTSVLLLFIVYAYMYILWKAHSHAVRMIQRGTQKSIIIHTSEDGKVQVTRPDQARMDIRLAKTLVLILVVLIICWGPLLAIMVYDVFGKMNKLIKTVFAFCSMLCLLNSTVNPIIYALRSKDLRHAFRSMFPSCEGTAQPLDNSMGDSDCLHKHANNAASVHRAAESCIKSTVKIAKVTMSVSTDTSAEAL
compound,measurement,value
C=C[C@H](O)C#CC#CC/C=C\CCCCCCC [falcarinol],activity at the CB1 receptor,potent inverse agonist
